For 1 compound, IC50 results are on record in BindingDB's records for PubMed 38359536 (China Pharmaceutical University).

The target of this assay is Protein arginine N-methyltransferase 5 (Homo sapiens, UniProt O14744). The experiment in a line: Inhibition of human PRMT5 expressed in HEK293 cells coexpressing MEP50 incubated for 60 mins by chemiluminescent assay.

By IC50 is commonly meant the concentration at which inhibition is half-maximal.

Chain of Protein arginine N-methyltransferase 5 (O14744 whole entry): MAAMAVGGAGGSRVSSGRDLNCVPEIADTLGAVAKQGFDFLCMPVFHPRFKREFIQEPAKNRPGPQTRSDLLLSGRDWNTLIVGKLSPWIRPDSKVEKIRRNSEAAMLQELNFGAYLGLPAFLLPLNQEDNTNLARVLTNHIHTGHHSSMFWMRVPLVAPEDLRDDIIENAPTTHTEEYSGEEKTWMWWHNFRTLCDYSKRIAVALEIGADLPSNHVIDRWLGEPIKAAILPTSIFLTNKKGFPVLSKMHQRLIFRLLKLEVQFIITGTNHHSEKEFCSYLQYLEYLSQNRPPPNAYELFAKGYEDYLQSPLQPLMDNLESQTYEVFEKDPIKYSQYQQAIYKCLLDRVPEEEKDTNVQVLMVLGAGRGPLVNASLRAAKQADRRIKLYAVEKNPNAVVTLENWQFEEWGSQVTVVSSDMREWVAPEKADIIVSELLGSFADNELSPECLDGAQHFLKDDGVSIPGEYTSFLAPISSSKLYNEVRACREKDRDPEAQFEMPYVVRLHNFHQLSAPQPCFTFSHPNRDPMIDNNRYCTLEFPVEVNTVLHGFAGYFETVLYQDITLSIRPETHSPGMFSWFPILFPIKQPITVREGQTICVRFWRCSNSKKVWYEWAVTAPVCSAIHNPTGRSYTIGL

In the case of `CC(=O)N1CCC(Nc2cc(C(=O)NC[C@H](O)CN3CCc4c([nH]c5ccccc45)C3)ncn2)CC1` [(S)-6-((1-acetylpiperidin-4-yl)amino)-N-(2-hydroxy-3-(1,3,4,9-tetrahydro-2H-pyrido [3,4-b]indol-2-yl)propyl)pyrimidine-4-carboxamide], the IC50 turned out to be 0.01 µM.
